Results on 82 molecules are retold here after US7348336B2 (Sanofi-Aventis Deutschland GmbH, priority 2000, dated 2008).

The target of the test is T1, IκBα-kinase complex (Homo sapiens, UniProt O14920+O15111).
T1 construct: endogenous in cells; host or cells: HeLa S3 cell extract, S100 fraction; ammonium sulfate precipitation and Superose-6 size exclusion
Description: IkB-Kinase ELISA.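 Note: substrate phosphopeptide captured on Protein-A plates, detected with Streptavidin-HRP and TMB absorbance at 450 nm, activity read from a synthetic phosphopeptide standard curve.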 It is filed as biochemical. On the technique in general: An ELISA detects its analyte on a solid surface through an enzyme-linked reagent.

Where [1] appears, read: activated IκBα kinase complex from HeLa S3 cell extracts, ELISA, read-out: IkB-kinase IC50.

Counter-ions that a name gives are not always drawn. Like-named read-outs stand apart in the source and are kept apart here.

T1 sequence (O14920 whole entry): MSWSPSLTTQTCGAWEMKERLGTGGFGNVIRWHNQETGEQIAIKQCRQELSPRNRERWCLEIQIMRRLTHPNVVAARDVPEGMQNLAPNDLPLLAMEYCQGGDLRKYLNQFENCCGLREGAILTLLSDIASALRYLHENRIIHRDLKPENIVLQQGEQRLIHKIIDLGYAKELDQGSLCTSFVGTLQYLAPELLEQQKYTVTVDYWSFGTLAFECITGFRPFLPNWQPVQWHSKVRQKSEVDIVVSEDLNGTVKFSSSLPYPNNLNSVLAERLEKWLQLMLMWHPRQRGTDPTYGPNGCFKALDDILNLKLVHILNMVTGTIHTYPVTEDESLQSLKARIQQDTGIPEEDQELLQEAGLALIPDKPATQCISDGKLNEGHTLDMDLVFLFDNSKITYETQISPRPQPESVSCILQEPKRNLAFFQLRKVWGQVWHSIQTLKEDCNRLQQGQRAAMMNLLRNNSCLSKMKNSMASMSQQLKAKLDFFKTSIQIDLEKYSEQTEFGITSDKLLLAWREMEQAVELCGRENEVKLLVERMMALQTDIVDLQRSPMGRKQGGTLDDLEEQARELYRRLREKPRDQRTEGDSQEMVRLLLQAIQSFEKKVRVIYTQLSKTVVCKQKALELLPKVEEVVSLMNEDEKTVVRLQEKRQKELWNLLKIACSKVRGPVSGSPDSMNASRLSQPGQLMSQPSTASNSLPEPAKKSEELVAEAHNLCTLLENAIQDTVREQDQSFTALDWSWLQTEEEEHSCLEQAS
T1 sequence (O15111 whole entry): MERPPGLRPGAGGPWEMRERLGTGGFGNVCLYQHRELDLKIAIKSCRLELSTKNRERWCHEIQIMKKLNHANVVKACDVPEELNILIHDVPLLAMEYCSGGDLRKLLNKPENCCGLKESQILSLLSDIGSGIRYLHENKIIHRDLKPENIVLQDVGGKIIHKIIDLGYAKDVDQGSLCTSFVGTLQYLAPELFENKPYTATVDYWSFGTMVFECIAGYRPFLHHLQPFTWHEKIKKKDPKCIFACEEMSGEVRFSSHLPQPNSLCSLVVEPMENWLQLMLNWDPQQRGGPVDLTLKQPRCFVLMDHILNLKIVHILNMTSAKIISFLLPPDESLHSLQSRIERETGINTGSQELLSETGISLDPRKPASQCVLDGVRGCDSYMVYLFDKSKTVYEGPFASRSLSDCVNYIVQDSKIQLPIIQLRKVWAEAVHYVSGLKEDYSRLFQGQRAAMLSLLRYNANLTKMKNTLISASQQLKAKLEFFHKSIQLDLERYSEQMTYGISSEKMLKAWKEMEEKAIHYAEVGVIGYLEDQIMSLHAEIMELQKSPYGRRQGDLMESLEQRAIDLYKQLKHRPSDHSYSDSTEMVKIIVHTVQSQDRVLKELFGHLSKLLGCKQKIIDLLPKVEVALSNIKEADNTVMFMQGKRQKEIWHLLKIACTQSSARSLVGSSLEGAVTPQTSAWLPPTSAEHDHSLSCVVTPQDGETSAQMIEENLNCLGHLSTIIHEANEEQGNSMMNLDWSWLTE
T1 sequence (Q9Y6K9 whole entry partner): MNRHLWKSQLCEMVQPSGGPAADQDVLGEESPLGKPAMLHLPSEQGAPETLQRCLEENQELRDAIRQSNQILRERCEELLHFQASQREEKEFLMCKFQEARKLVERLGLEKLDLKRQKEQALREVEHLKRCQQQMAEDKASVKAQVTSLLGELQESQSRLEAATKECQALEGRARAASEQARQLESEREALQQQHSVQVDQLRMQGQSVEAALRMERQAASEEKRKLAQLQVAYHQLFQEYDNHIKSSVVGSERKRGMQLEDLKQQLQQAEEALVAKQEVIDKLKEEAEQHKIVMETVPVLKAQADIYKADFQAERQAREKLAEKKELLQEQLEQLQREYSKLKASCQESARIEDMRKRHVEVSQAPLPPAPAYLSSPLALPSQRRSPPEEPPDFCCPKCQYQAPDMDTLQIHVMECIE

`Brc1ccc2[nH]c3cnccc3c2c1` [Example 1]: under setting [1], the IC50 worked out at 400 nM.
As to `CC(=O)n1c2ccc(Br)cc2c2ccncc21` [Example 2], the IC50 under setting [1] is 400 nM.
Take `Clc1cc(Cl)c2[nH]c3cnccc3c2c1` [Example 9]: the IC50 under setting [1] amounted to 200 nM.
As to `CS(=O)(=O)n1c2ccc(Br)cc2c2ccncc21` [Example 10], under setting [1], the IC50 is 400 nM.
In the case of `Cn1c2ccc(Br)cc2c2ccncc21` [Example 11], the IC50 under setting [1] is 700 nM.
`O=[N+]([O-])c1cc(Cl)cc2c1[nH]c1cnccc12` [Example 14]: the IC50 under setting [1] came to 4000 nM.
As for `Nc1cc(Cl)cc2c1[nH]c1cnccc12` [Example 15], the IC50 under setting [1] was 800 nM.
The same measure, in the same setting: as for `O=C(N1CCOCC1)n1c2ccc(Br)cc2c2ccncc21` [Example 17], the figure is 5000 nM; as for `CCOC(=O)Cn1c2ccc(Cl)cc2c2ccncc21` [Example 18], 23000 nM.
Turning to `OCCn1c2ccc(Cl)cc2c2ccncc21` [Example 19], under setting [1], the 50% inhibitory concentration (IC50) was found to be 3000 nM.
Regarding `NC(=O)Cn1c2ccc(Cl)cc2c2ccncc21` [Example 22], the IC50 under setting [1] is 15000 nM.
For `Cc1nccc2c1[nH]c1cc(OCC(=O)OC(C)(C)C)ccc12` [Example 25], the IC50 under setting [1] was 31000 nM.
Still for that read-out and setting: as for `Cc1nccc2c1[nH]c1cc(OCc3ccccc3)ccc12` [Example 26], the figure is 12000 nM; as for `CCOc1ccc2c(c1)[nH]c1c(C)nccc12` [Example 27], 4500 nM.
As to `Cc1nccc2c1[nH]c1ccc(Br)cc12` [Example 28], under setting [1], the IC50 was determined as 11000 nM.
In the case of `CC(=O)Oc1ccc2c(c1)[nH]c1c(C)nccc12` [Example 29], the IC50 under setting [1] came to 40000 nM.
On to `Fc1ccc2c(c1)[nH]c1cnccc12` [Example 31], for which, under setting [1], the IC50 came to 3300 nM.
Same read-out and setting: the result for `COc1cc2[nH]c3c(C)nccc3c2cc1Br` [Example 32] reads 4600 nM; that for `Fc1cc2[nH]c3cnccc3c2cc1Cl` [Example 34], 1000 nM.
On to `COc1ccc2c([nH]c3cnccc32)c1Cl` [Example 36, trifluoroacetate], for which, under setting [1], the IC50 amounted to 1400 nM.
As to `COc1c(Cl)cc2c([nH]c3cnccc32)c1Cl` [Example 37, trifluoroacetate], the IC50 under setting [1] turned out to be 150 nM.
As to `Oc1c(Cl)cc2c([nH]c3cnccc32)c1Cl` [Example 38], under setting [1], the IC50 was 11000 nM.
On to `CCOc1c(Cl)cc2c([nH]c3cnccc32)c1Cl` [Example 39], for which, under setting [1], the IC50 is 100 nM.
Turning to `Fc1cc2[nH]c3cnccc3c2cc1Cl` [Example 40, trifluoroacetate], the IC50 under setting [1] is 2000 nM.
On the same count and under the same terms, as for `CNc1cc(Cl)cc2c1[nH]c1cnccc12` [Example 43, trifluoroacetate], the figure is 1000 nM.
Take `CN(C)c1cc(Cl)cc2c1[nH]c1cnccc12` [Example 44, trifluoroacetate]: inhibition (IkB-kinase IC50) was half-maximal at 2000 nM (IC50).
In the case of `CS(=O)(=O)Nc1cc(Cl)cc2c1[nH]c1cnccc12` [Example 45, trifluoroacetate], the IC50 under setting [1] was 8300 nM.
For the molecule `CC(=O)N(C)c1cc(Cl)cc2c1[nH]c1cnccc12` [Example 48, trifluoroacetate], the IC50 under setting [1] was determined as 4000 nM.
On to `COCC(=O)Nc1cc(Cl)cc2c1[nH]c1cnccc12` [Example 51, trifluoroacetate], for which the IC50 under setting [1] was determined as 600 nM.
Still for that read-out and setting: as for `COc1cccc(C(=O)Nc2cc(Cl)cc3c2[nH]c2cnccc23)c1` [Example 52, 7-chloro-9-(3-methoxybenzoxylamino)-β-carboline trifluoroacetate], the figure is 600 nM.
`COc1ccc(C(=O)Nc2cc(Cl)cc3c2[nH]c2cnccc23)cc1` [Example 53, 7-chloro-9-(4-methoxybenzoxylamino)-β-carboline trifluoroacetate]: the IC50 under setting [1] came to 1400 nM.
As for `CC(C)CC(=O)Nc1cc(Cl)cc2c1[nH]c1cnccc12` [Example 55, trifluoroacetate], the IC50 under setting [1] came to 800 nM.
Consider `O=C(Nc1cc(Cl)cc2c1[nH]c1cnccc12)c1ccncc1` [Example 56], for which the IC50 under setting [1] worked out at 270 nM.
In the case of `CC(C)(C)C(=O)Nc1cc(Cl)cc2c1[nH]c1cnccc12` [Example 57], the IC50 under setting [1] turned out to be 4300 nM.
Consider `CC(C)(C)C(=O)Oc1c(Cl)cc2c([nH]c3cnccc32)c1Cl` [Example 58], for which the IC50 under setting [1] is 330 nM.
Same read-out and setting: as for `O=C(Oc1c(Cl)cc2c([nH]c3cnccc32)c1Cl)N1CCOCC1` [Example 59], the figure is 3200 nM; as for `O=C(Nc1cc(Cl)cc2c1[nH]c1cnccc12)c1cccnc1` [Example 60, N-(6-Chloro-9H-β-carbolin-8-yl)-nicotinamide], 52 nM; as for `O=C(Nc1cc(Cl)cc2c1[nH]c1cnccc12)c1ccccc1F` [Example 61], 940 nM.
With `O=C(Nc1cc(Cl)cc2c1[nH]c1cnccc12)c1ccccc1F` [Example 62], the IC50 under setting [1] is 380 nM.
The same measure, in the same setting: the result for `COc1cc2[nH]c3cnccc3c2cc1[N+](=O)[O-]` [Example 63] reads 1300 nM; that for `Clc1cc2c([nH]c3cnccc32)c(Cl)c1OCC1CC1` [Example 64], 110 nM; that for `Clc1cc2c([nH]c3cnccc32)c(Cl)c1OCC1CC1` [Example 65], 100 nM.
With `COc1cc2[nH]c3cnccc3c2cc1Cl` [Example 66], the IC50 under setting [1] worked out at 700 nM.
Consider `COc1c(Cl)cc2c([nH]c3cnccc32)c1N` [Example 67], for which, under setting [1], the IC50 was determined as 500 nM.
With `COc1c(Cl)cc2c([nH]c3cnccc32)c1NC(=O)c1cccnc1` [Example 68, N-(6-Chloro-7-methoxy-9H-β-carbolin-8-yl)-nicotinamide], under setting [1], the IC50 was 160 nM.
Take `O=C(c1cccnc1)N1CCn2c3cnccc3c3cc(Cl)cc1c32` [Example 69]: the IC50 under setting [1] was 3000 nM.
`COCOc1c(Cl)cc2c([nH]c3cnccc32)c1Cl` [Example 70]: under setting [1], the IC50 was found to be 360 nM.
Same read-out and setting: as for `COc1ccc(C(=O)Nc2cc(Cl)cc3c2[nH]c2cnccc23)cc1OC` [Example 71], the figure is 3000 nM; as for `N#Cc1cccc(C(=O)Nc2cc(Cl)cc3c2[nH]c2cnccc23)c1` [Example 72], 580 nM.
On the same count and under the same terms, as for `N#Cc1ccc(C(=O)Nc2cc(Cl)cc3c2[nH]c2cnccc23)cc1` [Example 73], the figure is 400 nM; as for `O=C(Nc1cc(Cl)cc2c1[nH]c1cnccc12)c1ccc(C(F)(F)F)cc1` [Example 74], 3800 nM.
Regarding `O=C(Nc1cc(Cl)cc2c1[nH]c1cnccc12)c1ccco1` [Example 75], under setting [1], the IC50 was determined as 290 nM.
On the same count and under the same terms, as for `O=C(Nc1cc(Cl)cc2c1[nH]c1cnccc12)c1cccs1` [Example 76], the figure is 900 nM.
For `Cc1oc(C(F)(F)F)cc1C(=O)Nc1cc(Cl)cc2c1[nH]c1cnccc12` [Example 77], the IC50 under setting [1] is 4400 nM.
In the case of `Cn1nc(C(C)(C)C)cc1C(=O)Nc1cc(Cl)cc2c1[nH]c1cnccc12` [Example 78], under setting [1], the IC50 turned out to be 2300 nM.
The same measure, in the same setting: as for `O=C(Nc1cc(Cl)cc2c1[nH]c1cnccc12)c1ccno1` [Example 79], the figure is 180 nM; as for `Cc1cc(C(=O)Nc2cc(Cl)cc3c2[nH]c2cnccc23)no1` [Example 80], 310 nM; as for `Clc1cc2c([nH]c3cnccc32)c(Cl)c1OCc1ccccc1` [Example 81], 250 nM.
Same read-out and setting: the result for `O=C(Nc1cc(Cl)cc2c1[nH]c1cnccc12)c1ccc(F)c(F)c1` [Example 82, N-(6-Chloro-9H-β-carbolin-8-yl)-3,4-difluoro-benzamide] reads 150 nM; that for `O=C(Nc1cc(Cl)cc2c1[nH]c1cnccc12)c1ccc(Cl)nc1` [Example 83, 6-Chloro-N-(6-chloro-9H-β-carbolin-8-yl)-nicotinamide], 60 nM.
Take `CC(C)Oc1c(Cl)cc2c([nH]c3cnccc32)c1Cl` [Example 84]: the IC50 under setting [1] amounted to 100 nM.
On the same count and under the same terms, as for `CC(C)COc1c(Cl)cc2c([nH]c3cnccc32)c1Cl` [Example 85], the figure is 200 nM; as for `O=C(Cc1cccs1)Nc1cc(Cl)cc2c1[nH]c1cnccc12` [Example 86], 700 nM.
Consider `O=C(Nc1cc(Cl)cc2c1[nH]c1cnccc12)c1ccccn1` [Example 87], for which the IC50 under setting [1] turned out to be 750 nM.
On to `O=C(Nc1cc(Cl)cc2c1[nH]c1cnccc12)c1cnccn1` [Example 88], for which the IC50 under setting [1] came to 280 nM.
Consider `O=C(Nc1cc(Cl)cc2c1[nH]c1cnccc12)c1ccc2c(c1)OCO2` [Example 89], for which the IC50 under setting [1] is 570 nM.
In the case of `O=C(COCc1ccccc1)Nc1cc(Cl)cc2c1[nH]c1cnccc12` [Example 90], the IC50 under setting [1] was 1400 nM.
The same measure, in the same setting: the result for `O=C1COc2c(Cl)cc3c([nH]c4cnccc43)c2N1` [Example 91] reads 2300 nM.
On to `Clc1cc2c([nH]c3cnccc32)c(Cl)c1OC1CCCC1` [Example 92], for which the IC50 under setting [1] stood at 400 nM.
As to `CCN(CC)CCOc1c(Cl)cc2c([nH]c3cnccc32)c1Cl` [Example 93], the IC50 under setting [1] worked out at 1300 nM.
In the case of `COc1c([N+](=O)[O-])cc2c([nH]c3cnccc32)c1Cl` [Example 94], under setting [1], the IC50 was found to be 640 nM.
`COc1c(N)cc2c([nH]c3cnccc32)c1Cl` [Example 95]: the IC50 under setting [1] stood at 1000 nM.
In the case of `Clc1cc2c([nH]c3cnccc32)c(Cl)c1OCC1CCCCC1` [Example 96], for the setting “IkB-kinase IC50”, the IC50 was determined as 1300 nM.
Turning to `O=C(Cc1cccnc1)Nc1cc(Cl)cc2c1[nH]c1cnccc12` [Example 97], under setting [1], the IC50 was 690 nM.
Regarding `CN(C)CC(=O)Nc1cc(Cl)cc2c1[nH]c1cnccc12` [Example 98], under setting [1], the IC50 was found to be 900 nM.
For `O=C1CC[C@H](C(=O)Nc2cc(Cl)cc3c2[nH]c2cnccc23)N1` [Example 99], the IC50 under setting [1] was found to be 90 nM.
Same read-out and setting: the result for `O=C(COc1ccccc1)Nc1cc(Cl)cc2c1[nH]c1cnccc12` [Example 100] reads 1500 nM; that for `CC(=O)Oc1c(Cl)cc2c([nH]c3cnccc32)c1Cl` [Example 101], 1800 nM; that for `O=C1CC[C@@H](C(=O)Nc2cc(Cl)cc3c2[nH]c2cnccc23)N1` [Example 103], 310 nM.
With `O=C(Nc1cc(Cl)cc2c1[nH]c1cnccc12)c1cccnc1O` [Example 104], under setting [1], the IC50 was found to be 1000 nM.
Take `Cc1cc(C(=O)Nc2cc(Cl)cc3c2[nH]c2cnccc23)n(C)n1` [Example 106]: the IC50 under setting [1] amounted to 600 nM.
For `CC(C)(C)c1cc(C(=O)Nc2cc(Cl)cc3c2[nH]c2cnccc23)n(Cc2ccccc2)n1` [Example 107], the IC50 under setting [1] turned out to be 400 nM.

Broadly, the IC50 is the concentration at which inhibition is half-maximal.
